# From the NIST ThermoML archive (doi:10.1016/j.fluid.2019.05.015)
# Numbers after ± are expanded uncertainties.
# Assay: refractive index (Na D-line) (dimensionless); xn = mol fraction of the nth substance listed
# Conditions: 100 kPa, Liquid, Standard Abbe refractometry
compound,measurement,setting,value
O=C1OCCO1 [ethylene carbonate] + CCn1cc[n+](C)c1.[Br-],refractive index,"298.2 K, x1 = 0.106",1.5505 ± 0.0006
same,refractive index,"298.2 K, x1 = 0.222",1.5405 ± 0.0006
same,refractive index,"298.2 K, x1 = 0.2945",1.531 ± 0.0006
same,refractive index,"298.2 K, x1 = 0.3671",1.5245 ± 0.0006
same,refractive index,"298.2 K, x1 = 0.4655",1.5105 ± 0.0006
same,refractive index,"298.2 K, x1 = 0.6002",1.498 ± 0.0006
same,refractive index,"298.2 K, x1 = 0.7142",1.4835 ± 0.0006
same,refractive index,"298.2 K, x1 = 0.7981",1.4695 ± 0.0006
same,refractive index,"298.2 K, x1 = 0.8946",1.45 ± 0.0006
same,refractive index,"308.2 K, x1 = 0.106",1.548 ± 0.0006
same,refractive index,"308.2 K, x1 = 0.222",1.5385 ± 0.0006
same,refractive index,"308.2 K, x1 = 0.2945",1.529 ± 0.0006
same,refractive index,"308.2 K, x1 = 0.3671",1.5235 ± 0.0006
same,refractive index,"308.2 K, x1 = 0.4655",1.5085 ± 0.0006
same,refractive index,"308.2 K, x1 = 0.6002",1.4955 ± 0.0006
same,refractive index,"308.2 K, x1 = 0.7142",1.481 ± 0.0006
same,refractive index,"308.2 K, x1 = 0.7981",1.466 ± 0.0006
same,refractive index,"308.2 K, x1 = 0.8946",1.445 ± 0.0005
same,refractive index,"318.2 K, x1 = 0.106",1.5455 ± 0.0006
same,refractive index,"318.2 K, x1 = 0.222",1.5345 ± 0.0006
same,refractive index,"318.2 K, x1 = 0.2945",1.5275 ± 0.0006
same,refractive index,"318.2 K, x1 = 0.3671",1.52 ± 0.0006
same,refractive index,"318.2 K, x1 = 0.4655",1.5065 ± 0.0006
same,refractive index,"318.2 K, x1 = 0.6002",1.493 ± 0.0006
same,refractive index,"318.2 K, x1 = 0.7142",1.4775 ± 0.0006
same,refractive index,"318.2 K, x1 = 0.7981",1.4635 ± 0.0006
same,refractive index,"318.2 K, x1 = 0.8946",1.4425 ± 0.0005
O=C1OCCO1 [ethylene carbonate] + O,refractive index,"298.2 K, x2 = 0.0993",1.4205 ± 0.0005
same,refractive index,"298.2 K, x2 = 0.1962",1.4175 ± 0.0005
same,refractive index,"298.2 K, x2 = 0.2943",1.414 ± 0.0005
same,refractive index,"298.2 K, x2 = 0.3321",1.4125 ± 0.0005
same,refractive index,"298.2 K, x2 = 0.4172",1.4085 ± 0.0005
same,refractive index,"298.2 K, x2 = 0.4758",1.4055 ± 0.0005
same,refractive index,"298.2 K, x2 = 0.5337",1.401 ± 0.0005
same,refractive index,"298.2 K, x2 = 0.5766",1.399 ± 0.0005
same,refractive index,"298.2 K, x2 = 0.6159",1.397 ± 0.0005
same,refractive index,"298.2 K, x2 = 0.6887",1.391 ± 0.0005
same,refractive index,"298.2 K, x2 = 0.7258",1.386 ± 0.0005
same,refractive index,"298.2 K, x2 = 0.7789",1.3805 ± 0.0005
same,refractive index,"298.2 K, x2 = 0.8239",1.375 ± 0.0005
same,refractive index,"298.2 K, x2 = 0.881",1.364 ± 0.0005
same,refractive index,"298.2 K, x2 = 0.9186",1.356 ± 0.0005
same,refractive index,"298.2 K, x2 = 0.9593",1.345 ± 0.0005
same,refractive index,"298.2 K, x2 = 0.9778",1.34 ± 0.0005
same,refractive index,"308.2 K, x2 = 0.0993",1.417 ± 0.0005
same,refractive index,"308.2 K, x2 = 0.1962",1.4145 ± 0.0005
same,refractive index,"308.2 K, x2 = 0.2943",1.411 ± 0.0005
same,refractive index,"308.2 K, x2 = 0.3321",1.409 ± 0.0005
same,refractive index,"308.2 K, x2 = 0.4172",1.4055 ± 0.0005
same,refractive index,"308.2 K, x2 = 0.4739",1.4015 ± 0.0005
same,refractive index,"308.2 K, x2 = 0.5337",1.3985 ± 0.0005
same,refractive index,"308.2 K, x2 = 0.5753",1.3955 ± 0.0005
same,refractive index,"308.2 K, x2 = 0.6159",1.3925 ± 0.0005
same,refractive index,"308.2 K, x2 = 0.688",1.3875 ± 0.0005
same,refractive index,"308.2 K, x2 = 0.725",1.381 ± 0.0005
same,refractive index,"308.2 K, x2 = 0.7785",1.3765 ± 0.0005
same,refractive index,"308.2 K, x2 = 0.8234",1.3705 ± 0.0005
same,refractive index,"308.2 K, x2 = 0.8807",1.361 ± 0.0005
same,refractive index,"308.2 K, x2 = 0.9183",1.354 ± 0.0005
same,refractive index,"308.2 K, x2 = 0.9591",1.3435 ± 0.0005
same,refractive index,"308.2 K, x2 = 0.9777",1.3385 ± 0.0005
same,refractive index,"318.2 K, x2 = 0.0993",1.414 ± 0.0005
same,refractive index,"318.2 K, x2 = 0.1962",1.4105 ± 0.0005
same,refractive index,"318.2 K, x2 = 0.2943",1.4075 ± 0.0005
same,refractive index,"318.2 K, x2 = 0.3321",1.406 ± 0.0005
same,refractive index,"318.2 K, x2 = 0.4172",1.4015 ± 0.0005
same,refractive index,"318.2 K, x2 = 0.473",1.3985 ± 0.0005
same,refractive index,"318.2 K, x2 = 0.5315",1.395 ± 0.0005
same,refractive index,"318.2 K, x2 = 0.5744",1.3925 ± 0.0005
same,refractive index,"318.2 K, x2 = 0.6147",1.3895 ± 0.0005
same,refractive index,"318.2 K, x2 = 0.6871",1.384 ± 0.0005
same,refractive index,"318.2 K, x2 = 0.7243",1.3785 ± 0.0005
same,refractive index,"318.2 K, x2 = 0.7779",1.374 ± 0.0005
same,refractive index,"318.2 K, x2 = 0.8228",1.368 ± 0.0005
same,refractive index,"318.2 K, x2 = 0.8803",1.3585 ± 0.0005
same,refractive index,"318.2 K, x2 = 0.9181",1.3505 ± 0.0005
same,refractive index,"318.2 K, x2 = 0.959",1.3425 ± 0.0005
same,refractive index,"318.2 K, x2 = 0.9777",1.337 ± 0.0005
